Experimental data as given in US20140005163A1 (NOVARTIS AG, priority 2010, published 2014).
Blank lines part the entries; values can stand above or below the compound they belong to.

Tests used:
[1] = tested on: PKB Ser473 phosphorylation in Rat1-myr-HA-p110 delta cells; assay: Reverse protein array assay, PKB Ser473 phosphorylation in Rat1-myr-p110 delta cells; format: cell-based; conditions: read-out: p-PKB IC50
In short: (§1)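 Cells: Rat1-myr-HA-p110 alpha/beta/delta, seeded ≥20 h. Lysis on ice 10 min; reverse-phase protein array, 4 lysate dilutions; fluorescence read, relative intensity.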

PI3K delta = target: T1, PI3K delta (Homo sapiens, UniProt O00329); assay: PI3K delta kinase assay (Kinase-Glo luminescence); format: biochemical
T1 construct: for the full-length p110-d subunit are generated and fused by overlapping PCR; p85(iSH2) fusion partner (see partner chain) (N); His tag (C); made in house; host or cells: baculovirus; Tn5 (Trichoplusia ni) or TiniPro insect cells
In short: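 ATP 1 μM, PI 10 μg/mL, PI3Kδ construct BV1060 10 nM (final); 10 mM Tris pH 7.5, 3 mM MgCl2, 50 mM NaCl, 0.05% CHAPS, 1 mM DTT; 60 min RT; Kinase-Glo stop, luminescence.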

PI3K beta = target: T2, PI3K beta (Homo sapiens, UniProt P42338); assay: PI3K beta kinase assay (Kinase-Glo luminescence); format: biochemical
T2 construct: for the full-length p110-b subunit are generated and fused by overlapping PCR; p85(iSH2) fusion partner (see partner chain) (N); His tag (C); made in house; host or cells: baculovirus; Tn5 (Trichoplusia ni) or TiniPro insect cells
In short: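 Full-length p110β with a Gly-linked p85 iSH2 and a C-terminal His tag (BV949, 25 nM) was incubated with 10 μg/mL phosphatidylinositol and 1 μM ATP in 10 mM Tris pH 7.5, 3 mM MgCl2, 50 mM NaCl, 0.05% CHAPS, 1 mM DTT for 60 min at room temperature. Residual ATP was read by Kinase-Glo luminescence.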

[2] = tested on: PKB Ser473 phosphorylation in Rat1-myr-HA-p110 beta cells; assay: Reverse protein array assay, PKB Ser473 phosphorylation in Rat1-myr-p110 beta cells; format: cell-based; conditions: 0.5 h, pAkt Ser473, 30 minutes incubation, read-out: p-PKB IC50
In short: as §1

PI3K alpha = target: T3, PI3K alpha (Homo sapiens, UniProt P42336); assay: PI3K alpha kinase assay (Kinase-Glo luminescence); format: biochemical
T3 construct: p85(iSH2) fusion partner (see partner chain) (N); His tag (C); made in house; host or cells: baculovirus; Tn5 (Trichoplusia ni) or TiniPro insect cells
In short: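 Compounds are titrated at 8 concentrations and mixed with PI3Kα protein (EMV B1075, 10 nM) in phosphatidylinositol (10 μg/mL). ATP at 1 μM starts the 60-minute room-temperature reaction, which is stopped with Kinase-Glo before luminescence reading. Four-parameter curve fitting gives IC50.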

T2 sequence (P42338 with tags, fused parts or gaps limits assumed): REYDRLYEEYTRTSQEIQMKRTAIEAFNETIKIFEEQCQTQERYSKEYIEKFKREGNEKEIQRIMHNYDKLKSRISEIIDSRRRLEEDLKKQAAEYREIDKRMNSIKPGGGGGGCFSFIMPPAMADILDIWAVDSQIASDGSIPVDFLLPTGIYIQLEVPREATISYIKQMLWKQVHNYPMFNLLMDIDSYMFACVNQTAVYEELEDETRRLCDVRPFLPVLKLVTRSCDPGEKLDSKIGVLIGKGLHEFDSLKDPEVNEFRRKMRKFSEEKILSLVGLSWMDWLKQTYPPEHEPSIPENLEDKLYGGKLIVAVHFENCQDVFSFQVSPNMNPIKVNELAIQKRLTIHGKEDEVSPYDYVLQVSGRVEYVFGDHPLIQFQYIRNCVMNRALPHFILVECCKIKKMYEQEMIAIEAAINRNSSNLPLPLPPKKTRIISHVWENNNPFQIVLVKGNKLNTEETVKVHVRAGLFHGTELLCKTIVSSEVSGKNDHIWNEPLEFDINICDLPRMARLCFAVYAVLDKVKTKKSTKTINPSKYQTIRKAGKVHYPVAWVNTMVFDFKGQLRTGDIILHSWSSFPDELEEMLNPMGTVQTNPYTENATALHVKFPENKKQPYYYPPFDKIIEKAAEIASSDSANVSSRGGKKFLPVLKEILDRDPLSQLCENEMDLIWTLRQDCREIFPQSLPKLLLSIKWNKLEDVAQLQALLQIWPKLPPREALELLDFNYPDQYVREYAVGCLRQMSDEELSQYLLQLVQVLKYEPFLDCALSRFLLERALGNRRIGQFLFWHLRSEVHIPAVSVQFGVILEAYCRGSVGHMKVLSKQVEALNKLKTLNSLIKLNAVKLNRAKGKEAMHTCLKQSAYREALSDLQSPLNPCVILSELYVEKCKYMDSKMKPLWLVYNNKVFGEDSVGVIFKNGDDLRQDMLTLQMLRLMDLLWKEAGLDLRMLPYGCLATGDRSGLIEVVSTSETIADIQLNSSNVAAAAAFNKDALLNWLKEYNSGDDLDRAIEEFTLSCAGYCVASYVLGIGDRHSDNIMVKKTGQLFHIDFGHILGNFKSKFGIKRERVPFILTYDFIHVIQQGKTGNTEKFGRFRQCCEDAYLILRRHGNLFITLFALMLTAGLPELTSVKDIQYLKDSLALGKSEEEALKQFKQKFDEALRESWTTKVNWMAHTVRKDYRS
T1 sequence (O00329 with tags, fused parts or gaps limits assumed): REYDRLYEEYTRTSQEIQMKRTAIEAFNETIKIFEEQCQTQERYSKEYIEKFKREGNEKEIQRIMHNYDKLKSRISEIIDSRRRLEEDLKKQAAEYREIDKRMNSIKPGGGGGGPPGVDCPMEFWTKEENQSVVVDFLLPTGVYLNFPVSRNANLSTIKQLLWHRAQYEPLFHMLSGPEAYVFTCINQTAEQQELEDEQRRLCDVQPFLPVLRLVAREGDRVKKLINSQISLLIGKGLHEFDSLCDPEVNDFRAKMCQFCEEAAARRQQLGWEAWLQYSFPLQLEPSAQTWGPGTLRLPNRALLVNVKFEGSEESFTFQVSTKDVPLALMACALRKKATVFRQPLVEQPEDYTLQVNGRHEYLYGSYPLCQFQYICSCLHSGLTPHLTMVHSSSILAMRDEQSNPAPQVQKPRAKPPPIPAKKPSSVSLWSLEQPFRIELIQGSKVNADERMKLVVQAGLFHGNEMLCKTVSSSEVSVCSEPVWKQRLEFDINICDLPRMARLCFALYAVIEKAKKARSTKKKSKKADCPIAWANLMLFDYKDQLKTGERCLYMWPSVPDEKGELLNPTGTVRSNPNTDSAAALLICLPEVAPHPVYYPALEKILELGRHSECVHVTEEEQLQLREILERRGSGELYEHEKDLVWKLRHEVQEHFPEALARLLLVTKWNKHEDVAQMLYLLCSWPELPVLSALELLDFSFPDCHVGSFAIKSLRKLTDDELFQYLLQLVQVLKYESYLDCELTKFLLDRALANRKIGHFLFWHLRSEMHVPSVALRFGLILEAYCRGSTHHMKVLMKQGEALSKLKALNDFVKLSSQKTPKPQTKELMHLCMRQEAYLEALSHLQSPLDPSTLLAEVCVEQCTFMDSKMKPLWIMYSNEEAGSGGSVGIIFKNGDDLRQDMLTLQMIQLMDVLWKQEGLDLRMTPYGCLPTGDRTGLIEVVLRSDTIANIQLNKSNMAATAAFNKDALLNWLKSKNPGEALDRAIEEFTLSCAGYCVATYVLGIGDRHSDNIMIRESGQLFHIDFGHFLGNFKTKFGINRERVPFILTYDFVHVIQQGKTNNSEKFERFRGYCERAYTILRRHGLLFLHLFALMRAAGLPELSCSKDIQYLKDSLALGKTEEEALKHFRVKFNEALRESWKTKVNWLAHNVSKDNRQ
T3 sequence (P42336 with tags, fused parts or gaps limits assumed): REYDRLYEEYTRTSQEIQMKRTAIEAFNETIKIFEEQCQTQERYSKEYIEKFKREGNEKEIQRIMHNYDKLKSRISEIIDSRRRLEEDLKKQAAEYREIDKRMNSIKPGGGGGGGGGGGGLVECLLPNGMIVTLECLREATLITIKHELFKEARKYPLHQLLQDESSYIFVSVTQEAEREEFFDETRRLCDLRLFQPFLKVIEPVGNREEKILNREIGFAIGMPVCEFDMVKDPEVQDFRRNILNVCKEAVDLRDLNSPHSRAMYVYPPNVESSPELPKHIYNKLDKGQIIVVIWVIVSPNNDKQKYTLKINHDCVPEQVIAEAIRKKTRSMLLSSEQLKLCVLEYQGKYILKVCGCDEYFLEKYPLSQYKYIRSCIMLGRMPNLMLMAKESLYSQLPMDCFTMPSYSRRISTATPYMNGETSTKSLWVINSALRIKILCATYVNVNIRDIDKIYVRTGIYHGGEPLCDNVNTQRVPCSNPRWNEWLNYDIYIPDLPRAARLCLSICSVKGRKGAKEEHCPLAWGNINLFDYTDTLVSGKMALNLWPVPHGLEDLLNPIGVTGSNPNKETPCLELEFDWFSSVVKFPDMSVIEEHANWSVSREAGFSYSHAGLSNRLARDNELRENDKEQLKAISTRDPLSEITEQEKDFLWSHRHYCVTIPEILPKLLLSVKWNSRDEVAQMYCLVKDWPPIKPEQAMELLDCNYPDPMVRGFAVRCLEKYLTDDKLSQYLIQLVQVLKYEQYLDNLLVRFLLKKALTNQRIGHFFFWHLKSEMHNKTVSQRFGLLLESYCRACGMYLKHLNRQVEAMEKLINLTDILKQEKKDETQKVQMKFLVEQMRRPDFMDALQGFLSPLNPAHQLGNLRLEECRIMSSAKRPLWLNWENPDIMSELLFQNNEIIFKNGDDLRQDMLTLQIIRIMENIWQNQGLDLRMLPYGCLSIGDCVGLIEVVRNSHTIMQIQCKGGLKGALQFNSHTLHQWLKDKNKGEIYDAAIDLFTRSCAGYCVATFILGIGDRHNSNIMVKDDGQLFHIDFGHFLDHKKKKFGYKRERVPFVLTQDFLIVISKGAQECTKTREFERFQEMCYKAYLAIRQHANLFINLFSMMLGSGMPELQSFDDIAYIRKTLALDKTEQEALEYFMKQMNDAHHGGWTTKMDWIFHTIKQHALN

SMILES: Cc1nn(C)cc1-n1c(=O)n(C)c2cnc3ccc(-c4cccc(N(C)S(C)(=O)=O)c4)cc3c21 [Example 117, N-{3-[1-(1,3-Dimethyl-1H-pyrazol-4-yl)-3-methyl-2-oxo-2,3-dihydro-1H-imidazo[4,5-c]quinolin-8-yl]-phenyl}-N-methyl-methanesulfonamide]
- IC50 [1]: 425 nM
- IC50 (PI3K delta): 147 nM
- IC50 (PI3K beta): 907 nM
- IC50 [2]: 659 nM
- IC50 (PI3K alpha): 58 nM

SMILES: CNc1ccc(-c2ccc3ncc4c(c3c2)n(-c2cn(CC(=O)N(C)C)nc2C)c(=O)n4C)cn1 [Example 118.3, N,N-Dimethyl-2-{3-methyl-4-[3-methyl-8-(6-methylamino-pyridin-3-yl)-2-oxo-2,3-dihydro-imidazo[4,5-c]quinolin-1-yl]-pyrazol-1-yl}-acetamide]
- IC50 [1]: 396 nM
- IC50 (PI3K delta): 84 nM
- IC50 (PI3K beta): 695 nM
- IC50 [2]: 43 nM
- IC50 (PI3K alpha): 16 nM

SMILES: CNc1ccc(-c2ccc3ncc4c(c3c2)n(-c2cn(C)nc2Cl)c(=O)n4C)cn1 [Example 118.5, 1-(3-Chloro-1-methyl-1H-pyrazol-4-yl)-3-methyl-8-(6-methylamino-pyridin-3-yl)-1,3-dihydro-imidazo[4,5-c]quinolin-2-one]
- IC50 [1]: 6 nM
- IC50 (PI3K delta): 5 nM
- IC50 (PI3K beta): 41 nM
- IC50 [2]: < 5 nM
- IC50 (PI3K alpha): 9 nM

SMILES: CCNc1cncc(-c2ccc3ncc4c(c3c2)n(-c2cn(C)nc2C)c(=O)n4C)c1 [Example 122, 1-(1,3-Dimethyl-1H-pyrazol-4-yl)-8-(5-ethylamino-pyridin-3-yl)-3-methyl-1,3-dihydro-imidazo[4,5-c]quinolin-2-one]
- IC50 [1]: 56 nM
- IC50 (PI3K delta): 14 nM
- IC50 (PI3K beta): 22 nM
- IC50 [2]: 22 nM
- IC50 (PI3K alpha): 14 nM

SMILES: Cc1nn(C)cc1-n1c(=O)n(C)c2cnc3ccc(-c4cnc(N)c(F)c4)cc3c21 [Example 142.2, 8-(6-Amino-5-fluoro-pyridin-3-yl)-1-(1,3-dimethyl-1H-pyrazol-4-yl)-3-methyl-1,3-dihydro-imidazo[4,5-c]quinolin-2-one]
- IC50 [1]: 19 nM
- IC50 (PI3K delta): 33 nM
- IC50 (PI3K beta): 287 nM
- IC50 [2]: 11 nM
- IC50 (PI3K alpha): 18 nM

SMILES: [2H]C([2H])([2H])Nc1ncc(-c2ccc3ncc4c(c3c2)n(-c2c(C)nn(C)c2C)c(=O)n4C)cc1C(F)(F)F [Example 143, 3-Methyl-8-(6-trideuteromethylamino-5-trifluoromethyl-pyridin-3-yl)-1-(1,3,5-trimethyl-1H-pyrazol-4-yl)-1,3-dihydro-imidazo[4,5-c]quinolin-2-one]
- IC50 [1]: 86 nM
- IC50 (PI3K delta): 10 nM
- IC50 (PI3K beta): 111 nM
- IC50 [2]: 57 nM
- IC50 (PI3K alpha): 19 nM

SMILES: CNc1ncc(-c2ccc3ncc4c(c3c2)n(-c2cn(C(C)C)nc2C)c(=O)n4C)cc1Cl [Example 146.3, 8-(5-Chloro-6-methylamino-pyridin-3-yl)-1-(1-isopropyl-3-methyl-1H-pyrazol-4-yl)-3-methyl-1,3-dihydro-imidazo[4,5-c]quinolin-2-one]
- IC50 [1]: 24 nM
- IC50 (PI3K delta): 14 nM
- IC50 (PI3K beta): 207 nM
- IC50 [2]: 119 nM
- IC50 (PI3K alpha): 50 nM

SMILES: CNc1ncc(-c2ccc3ncc4c(c3c2)n(-c2c(C)noc2C)c(=O)n4C)cc1Cl [Example 146.6, 8-(5-Chloro-6-methylamino-pyridin-3-yl)-1-(3,5-dimethyl-isoxazol-4-yl)-3-methyl-1,3-dihydro-imidazo[4,5-c]quinolin-2-one]
- IC50 [1]: 564 nM
- IC50 (PI3K delta): 10 nM
- IC50 (PI3K beta): 281 nM
- IC50 [2]: 428 nM
- IC50 (PI3K alpha): 92 nM

SMILES: CCNc1ncc(-c2ccc3ncc4c(c3c2)n(-c2cn(C)nc2C)c(=O)n4C)cc1Cl [Example 147, 8-(5-Chloro-6-ethylamino-pyridin-3-yl)-1-(1,3-dimethyl-1H-pyrazol-4-yl)-3-methyl-1,3-dihydro-imidazo[4,5-c]quinolin-2-one]
- IC50 [1]: 86 nM
- IC50 (PI3K delta): 8 nM
- IC50 (PI3K beta): 114 nM
- IC50 [2]: 30 nM
- IC50 (PI3K alpha): 25 nM

SMILES: CCNc1cc(-c2ccc3ncc4c(c3c2)n(-c2cn(C)nc2C)c(=O)n4C)cnc1COC [Example 156, 1-(1,3-Dimethyl-1H-pyrazol-4-yl)-8-(5-ethylamino-6-methoxymethyl-pyridin-3-yl)-3-methyl-1,3-dihydro-imidazo[4,5-c]quinolin-2-one]
- IC50 [1]: 12 nM
- IC50 (PI3K delta): 17 nM
- IC50 (PI3K beta): 29 nM
- IC50 [2]: 5 nM
- IC50 (PI3K alpha): 16 nM

SMILES: CNc1cc(-c2ccc3ncc4c(c3c2)n(-c2cn(C)nc2Cl)c(=O)n4C)cnc1COC [Example 160.1, 1-(3-Chloro-1-methyl-1H-pyrazol-4-yl)-8-(6-methoxymethyl-5-methylamino-pyridin-3-yl)-3-methyl-1,3-dihydro-imidazo[4,5-c]quinolin-2-one]
- IC50 [1]: 10 nM
- IC50 (PI3K delta): < 3 nM
- IC50 (PI3K beta): 17 nM
- IC50 [2]: < 5 nM
- IC50 (PI3K alpha): 14 nM

SMILES: CCOCc1cc(-c2ccc3ncc4c(c3c2)n(-c2cn(CC)nc2C)c(=O)n4C)cnc1N [Example 166.2, 8-(6-Amino-5-ethoxymethyl-pyridin-3-yl)-1-(1-ethyl-3-methyl-1H-pyrazol-4-yl)-3-methyl-1,3-dihydro-imidazo[4,5-c]quinolin-2-one]
- IC50 [1]: 50 nM
- IC50 (PI3K delta): 7 nM
- IC50 (PI3K beta): 81 nM
- IC50 [2]: 86 nM
- IC50 (PI3K alpha): 15 nM

The remaining compounds from weak to strong by IC50 [1], led by results:

- IC50 [1]: 280 nM
- IC50 (PI3K delta): 18 nM
- IC50 (PI3K beta): 162 nM
- IC50 [2]: 168 nM
- IC50 (PI3K alpha): 42 nM
SMILES: CCNc1ncc(-c2ccc3ncc4c(c3c2)n(-c2c(C)nn(C)c2C)c(=O)n4C)cc1C(F)(F)F [Example 145.1, 8-(6-Ethylamino-5-trifluoromethyl-pyridin-3-yl)-3-methyl-1-(1,3,5-trimethyl-1H-pyrazol-4-yl)-1,3-dihydro-imidazo[4,5-c]quinolin-2-one]

- IC50 [1]: 95 nM
- IC50 (PI3K delta): 11 nM
- IC50 (PI3K beta): 112 nM
- IC50 [2]: 88 nM
- IC50 (PI3K alpha): 72 nM
SMILES: CNc1cc(-c2ccc3ncc4c(c3c2)n(-c2c(C)nn(C)c2C)c(=O)n4C)cnc1CO [Example 158.4, 8-(6-Hydroxymethyl-5-methylamino-pyridin-3-yl)-3-methyl-1-(1,3,5-trimethyl-1H-pyrazol-4-yl)-1,3-dihydro-imidazo[4,5-c]quinolin-2-one]

- IC50 [1]: 50 nM
- IC50 (PI3K delta): 5 nM
- IC50 (PI3K beta): 34 nM
- IC50 [2]: 25 nM
- IC50 (PI3K alpha): 14 nM
SMILES: COCc1cc(-c2ccc3ncc4c(c3c2)n(-c2cn(C(C)C)nc2C)c(=O)n4C)cnc1N [Example 168.1, 8-(6-Amino-5-methoxymethyl-pyridin-3-yl)-1-(1-isopropyl-3-methyl-1H-pyrazol-4-yl)-3-methyl-1,3-dihydro-imidazo[4,5-c]quinolin-2-one]

- IC50 [1]: 45 nM
- IC50 (PI3K delta): 15 nM
- IC50 (PI3K beta): 10 nM
- IC50 [2]: 17 nM
- IC50 (PI3K alpha): 9 nM
SMILES: CNc1cc(-c2ccc3ncc4c(c3c2)n(-c2cn(C)nc2C)c(=O)n4C)cnc1CO [Example 158.1, 1-(1,3-Dimethyl-1H-pyrazol-4-yl)-8-(6-hydroxymethyl-5-methylamino-pyridin-3-yl)-3-methyl-1,3-dihydro-imidazo[4,5-c]quinolin-2-one]

- IC50 [1]: 40 nM
- IC50 (PI3K delta): 5 nM
- IC50 (PI3K beta): 21 nM
- IC50 [2]: 22 nM
- IC50 (PI3K alpha): 6 nM
SMILES: Cc1nn(C)cc1-n1c(=O)n(C)c2cnc3ccc(-c4cnc(F)c(N(C)C)c4)cc3c21 [Example 151, 8-(5-Dimethylamino-6-fluoro-pyridin-3-yl)-1-(1,3-dimethyl-1H-pyrazol-4-yl)-3-methyl-1,3-dihydro-imidazo[4,5-c]quinolin-2-one]

- IC50 [1]: 33 nM
- IC50 (PI3K delta): 28 nM
- IC50 (PI3K beta): 33 nM
- IC50 [2]: 10 nM
- IC50 (PI3K alpha): 17 nM
SMILES: Cc1nn(C)cc1-n1c(=O)n(C)c2cnc3ccc(-c4cnc(Cl)c(N)c4)cc3c21 [Example 152.2, 8-(5-Amino-6-chloro-pyridin-3-yl)-1-(1,3-dimethyl-1H-pyrazol-4-yl)-3-methyl-1,3-dihydro-imidazo[4,5-c]quinolin-2-one]

- IC50 [1]: 12 nM
- IC50 (PI3K delta): 18 nM
- IC50 (PI3K beta): 302 nM
- IC50 [2]: 14 nM
- IC50 (PI3K alpha): 26 nM
SMILES: CNc1ccc(-c2ccc3ncc4c(c3c2)n(-c2cn(C(C)C)nc2C)c(=O)n4C)cn1 [Example 118.1, 1-(1-isopropyl-3-methyl-1H-pyrazol-4-yl)-3-methyl-8-(6-methylamino-pyridin-3-yl)-1,3-dihydro-imidazo[4,5-c]quinolin-2-one]
